≈ marks a conversion by molar mass, not a printed value. Positions of bridges follow the written chain, without caps; N, C: chain ends. Non-standard residues stand in square brackets, D forms with d. Residues, ends and D or L forms follow the SMILES beside them. Groups on a side chain read outwards from the residue. ξ: configuration not given here. *: point of attachment. Palmitoyl(16-(5-tetrazolyl)) = O=C(CCCCCCCCCCCCCCCc1nnn[nH]1)*; Lys(CH2CO2H)2 = N[C@@H](CCCCN(CC(=O)O)CC(=O)O)C(=O)O; X1 = O=C(O)CCCCCCCCCCCCCCCCC(=O)NCCOCCOCCN*; C17 diacid = O=C(O)CCCCCCCCCCCCCCCC(=O)*; Hyp = O=C(O)[C@@H]1C[C@@H](O)CN1; ξH = NC(Cc1c[nH]cn1)C(=O)O; Orn = NCCC[C@H](N)C(=O)O; Dap = NC[C@H](N)C(=O)O; AEEA = NCCOCCOCC(=O)O; ξK = NCCCCC(N)C(=O)O
Columns and labels:
physchem = experiment: physchem
Experimental: From a stock solution in vehicle, either H2O or 10 mM phosphate, containing 1 mg (as weighed) compound per ml, 8-11 aliquots are withdrawn and pH-adjusted individually with HCl/NaOH, to cover the whole pH range.

MC1 receptor = MC1 receptor (Homo sapiens, UniProt Q01726); experiment: biochemical
How it was run: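 Compounds competed against 125I-NDP-α-MSH (22 pM final) for binding to stably MC1-expressing BHK cell membranes, 30 °C for 90 min in HEPES pH 7.4 buffer with 0.1% HSA or ovalbumin. Bound ligand collected by filtration and counted; binding curves analysed by non-linear regression.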

Chain of MC1 receptor (Q01726 whole entry): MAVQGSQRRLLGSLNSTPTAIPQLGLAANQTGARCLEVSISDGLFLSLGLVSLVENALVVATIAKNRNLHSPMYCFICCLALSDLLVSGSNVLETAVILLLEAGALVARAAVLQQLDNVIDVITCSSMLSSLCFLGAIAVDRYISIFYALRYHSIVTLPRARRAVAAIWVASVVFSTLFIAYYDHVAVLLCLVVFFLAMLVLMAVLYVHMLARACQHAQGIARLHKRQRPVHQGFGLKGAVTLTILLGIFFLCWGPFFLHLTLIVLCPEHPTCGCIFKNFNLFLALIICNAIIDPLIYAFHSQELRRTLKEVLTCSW

Compound	solubility (physchem; pH 7, Solubility Conc.) [µM]	solubility (physchem; pH 7.3, Solubility Conc.) [µM]	solubility (physchem; pH 7.5, Solubility Conc.) [µM]	solubility (physchem; pH 7.6, Solubility Conc.) [µM]	Ki (MC1 receptor) [µM]	solubility (physchem; pH 6.7, Solubility Conc.) [µM]	solubility (physchem; pH 7.4, Solubility Conc.) [µM]	solubility (physchem; pH 8, Solubility Conc.) [µM]	other results
CC(=O)N[C@H]1CCC(=O)NCCC[C@@H](C(=O)N2CCC[C@H]2C(=O)N2CCC[C@H]2C(=O)N[C@@H](CCCNC(=N)N)C(=O)N[C@@H](CC(=O)O)C(=O)N[C@@H](CCCCN(CC(=O)O)CC(=O)O)C(=O)N[C@@H](CCCCNC(=O)COCCOCCNC(=O)CCCCCCCCCCCCCCCc2nnn[nH]2)C(N)=O)NC(=O)[C@H](Cc2c[nH]c3ccccc23)NC(=O)[C@H](CCCNC(=N)N)NC(=O)[C@@H](Cc2ccccc2)NC(=O)[C@H](CCC(N)=O)NC1=O [Example 37, Ac-c[Glu-Gln-D-Phe-Arg-Trp-Orn]-Pro-Pro-Arg-Asp-Lys(biscarboxymethyl)-Lys[(2-{2-[16-(tetrazol-5-yl)hexadecanoylamino]ethoxy}ethoxy)acetyl]-NH2] (Ac-EQ[dF]RW[Orn]PPRD[Lys(CH2CO2H)2]K([AEEA-Palmitoyl(16-(5-tetrazolyl))])-NH2; lactam 1-6)	510 (≈ 1120 µg/mL)	486 (≈ 1070 µg/mL)	458 (≈ 1000 µg/mL)	467 (≈ 1020 µg/mL)	> 10	–	–	–	solubility (physchem; pH 5.7, Solubility Conc.): 95 µM (≈ 208 µg/mL); solubility (physchem; pH 6.4, Solubility Conc.): 464 µM (≈ 1020 µg/mL); solubility (physchem; pH 6.6, Solubility Conc.): 450 µM (≈ 986 µg/mL); solubility (physchem; pH 6.8, Solubility Conc.): 453 µM (≈ 993 µg/mL); solubility (physchem; pH 7.2, Solubility Conc.): 482 µM (≈ 1060 µg/mL); solubility (physchem; pH 7.9, Solubility Conc.): 507 µM (≈ 1110 µg/mL)
CC(=O)N[C@H]1CCCNC(=O)C[C@@H](C(=O)N2CCC[C@H]2C(=O)N[C@@H](CO)C(=O)NC(CCCCN)C(=O)N[C@@H](CCC(=O)O)C(=O)N[C@@H](CCC(=O)O)C(=O)N[C@@H](CO)C(=O)N[C@@H](CO)C(=O)N[C@@H](CCCCNC(=O)COCCOCCNC(=O)CCCCCCCCCCCCCCCC(=O)O)C(N)=O)NC(=O)CNC(=O)[C@H](Cc2c[nH]c3ccccc23)NC(=O)[C@H](CCCNC(=N)N)NC(=O)[C@@H](Cc2ccccc2)NC(=O)C(Cc2c[nH]cn2)NC(=O)[C@H](CCC(=O)O)NC1=O (some centres unmarked) [Example 40] (Ac-[Orn]E[ξH][dF]RWGDPS[ξK]EESSK([AEEA-C17 diacid])-NH2; lactam 1-8)	505 (≈ 1200 µg/mL)	–	–	489 (≈ 1170 µg/mL)	> 10	493 (≈ 1180 µg/mL)	499 (≈ 1190 µg/mL)	488 (≈ 1160 µg/mL)	solubility (physchem; pH 5.9, Solubility Conc.): 266 µM (≈ 634 µg/mL); solubility (physchem; pH 6.3, Solubility Conc.): 501 µM (≈ 1190 µg/mL); solubility (physchem; pH 6.5, Solubility Conc.): 512 µM (≈ 1220 µg/mL); solubility (physchem; pH 8.2, Solubility Conc.): 503 µM (≈ 1200 µg/mL)
CC(=O)N[C@H]1CC(=O)NC[C@@H](C(=O)N2CCC[C@H]2C(=O)N2CCC[C@H]2C(=O)N[C@@H](CCCNC(=N)N)C(=O)N[C@@H](CC(=O)O)C(=O)N[C@@H](CCCCN(CC(=O)O)CC(=O)O)C(=O)N[C@@H](CCCCNC(=O)COCCOCCNC(=O)CCCCCCCCCCCCCCCc2nnn[nH]2)C(N)=O)NC(=O)[C@H](Cc2c[nH]c3ccccc23)NC(=O)[C@H](CCCNC(=N)N)NC(=O)[C@@H](Cc2ccccc2)NC(=O)[C@H](Cc2c[nH]cn2)NC1=O [Example 41, Ac-c[Asp-His-D-Phe-Arg-Trp-Dap]-Pro-Pro-Arg-Asp-Lys(biscarboxymethyl)-Lys[(2-{2-[16-(tetrazol-5-yl)hexadecanoylamino]ethoxy}ethoxy)acetyl]-NH2] (Ac-DH[dF]RW[Dap]PPRD[Lys(CH2CO2H)2]K([AEEA-Palmitoyl(16-(5-tetrazolyl))])-NH2; lactam 1-6)	39 (≈ 84.2 µg/mL)	87 (≈ 188 µg/mL)	387 (≈ 835 µg/mL)	497 (≈ 1070 µg/mL)	> 10	–	160 (≈ 345 µg/mL)	493 (≈ 1060 µg/mL)	solubility (physchem; pH 7.7, Solubility Conc.): 478 µM (≈ 1030 µg/mL); solubility (physchem; pH 7.8, Solubility Conc.): 451 µM (≈ 973 µg/mL)
CC(=O)N[C@H]1CCCCNC(=O)C[C@@H](C(=O)N2CCC[C@H]2C(=O)N2CCC[C@H]2C(=O)N[C@@H](Cc2c[nH]cn2)C(=O)N[C@@H](CO)C(=O)N[C@@H](CCCCN(CC(=O)O)CC(=O)O)C(=O)N[C@@H](CO)C(=O)N[C@@H](CO)C(=O)N[C@@H](CCC(=O)O)C(=O)N[C@@H](CCCCNC(=O)COCCOCCNC(=O)CCCCCCCCCCCCCCCC(=O)O)C(N)=O)NC(=O)[C@H](Cc2c[nH]c3ccccc23)NC(=O)[C@H](CCCNC(=N)N)NC(=O)[C@@H](Cc2ccccc2)NC(=O)[C@H](Cc2c[nH]cn2)NC1=O [Example 45, Ac-c[Lys-His-D-Phe-Arg-Trp-Asp]-Pro-Pro-His-Ser-Lys(biscarboxymethyl)-Ser-Ser-Glu-Lys({2-[2-(16-carboxyhexadecanoylamino)ethoxy]ethoxy}acetyl)-NH2] (Ac-KH[dF]RWDPPHS[Lys(CH2CO2H)2]SSEK([AEEA-C17 diacid])-NH2; lactam 1-6)	370 (≈ 900 µg/mL)	391 (≈ 951 µg/mL)	380 (≈ 924 µg/mL)	–	> 10	334 (≈ 813 µg/mL)	–	–	solubility (physchem; pH 6.4, Solubility Conc.): 199 µM (≈ 484 µg/mL); solubility (physchem; pH 6.8, Solubility Conc.): 350 µM (≈ 851 µg/mL); solubility (physchem; pH 7.7, Solubility Conc.): 379 µM (≈ 922 µg/mL); solubility (physchem; pH 7.9, Solubility Conc.): 391 µM (≈ 951 µg/mL); solubility (physchem; pH 8.1, Solubility Conc.): 400 µM (≈ 973 µg/mL)
CC(=O)N[C@H]1CCC(=O)NCCCC[C@@H](C(=O)N2C[C@H](O)C[C@H]2C(=O)N2C[C@H](O)C[C@H]2C(=O)N[C@@H](CCCNC(=N)N)C(=O)N[C@@H](CC(=O)O)C(=O)N[C@@H](CCCCN(CC(=O)O)CC(=O)O)C(=O)N[C@@H](CCCCNC(=O)COCCOCCNC(=O)CCCCCCCCCCCCCCCc2nnn[nH]2)C(N)=O)NC(=O)[C@H](Cc2c[nH]c3ccccc23)NC(=O)[C@H](CCCNC(=N)N)NC(=O)[C@@H](Cc2ccccc2)NC(=O)[C@H](Cc2c[nH]cn2)NC1=O [Example 48, Ac-c[Glu-His-D-Phe-Arg-Trp-Lys]-Hyp-Hyp-Arg-Asp-Lys(biscarboxymethyl)-Lys[(2-{2-[16-(tetrazol-5-yl)hexadecanoylamino]ethoxy}ethoxy)acetyl]-NH2] (Ac-EH[dF]RWK[Hyp][Hyp]RD[Lys(CH2CO2H)2]K([AEEA-Palmitoyl(16-(5-tetrazolyl))])-NH2; lactam 1-6)	107 (≈ 240 µg/mL)	218 (≈ 490 µg/mL)	368 (≈ 827 µg/mL)	416 (≈ 935 µg/mL)	> 10	54 (≈ 121 µg/mL)	309 (≈ 694 µg/mL)	420 (≈ 944 µg/mL)	solubility (physchem; pH 7.8, Solubility Conc.): 430 µM (≈ 966 µg/mL); solubility (physchem; pH 8.1, Solubility Conc.): 418 µM (≈ 939 µg/mL); solubility (physchem; pH 8.3, Solubility Conc.): 412 µM (≈ 926 µg/mL)
CC(=O)N[C@H]1CCCCNC(=O)C[C@@H](C(=O)N2CCC[C@H]2C(=O)N2CCC[C@H]2C(=O)N[C@@H](Cc2c[nH]cn2)C(=O)N[C@@H](CCC(=O)O)C(=O)N[C@@H](CCC(=O)O)C(=O)N[C@@H](CO)C(=O)N[C@@H](CO)C(=O)N[C@@H](CCC(=O)O)C(=O)N[C@@H](CCCCNC(=O)COCCOCCNC(=O)CCCCCCCCCCCCCCCC(=O)O)C(N)=O)NC(=O)[C@H](Cc2c[nH]c3ccccc23)NC(=O)[C@H](CCCNC(=N)N)NC(=O)[C@@H](Cc2ccccc2)NC(=O)[C@H](Cc2c[nH]cn2)NC1=O [Example 52] (Ac-KH[dF]RWDPPHEESSEK([AEEA-C17 diacid])-NH2; lactam 1-6)	372 (≈ 878 µg/mL)	378 (≈ 892 µg/mL)	382 (≈ 901 µg/mL)	381 (≈ 899 µg/mL)	> 10	376 (≈ 887 µg/mL)	–	391 (≈ 923 µg/mL)	solubility (physchem; pH 6.1, Solubility Conc.): 169 µM (≈ 399 µg/mL); solubility (physchem; pH 6.3, Solubility Conc.): 339 µM (≈ 800 µg/mL); solubility (physchem; pH 8.3, Solubility Conc.): 390 µM (≈ 920 µg/mL)
CC(=O)N[C@H]1CCCCNC(=O)C[C@@H](C(=O)N2CCC[C@H]2C(=O)N[C@@H](CO)C(=O)N[C@@H](CO)C(=O)N[C@@H](CO)C(=O)N[C@@H](CCCCN(CC(=O)O)CC(=O)O)C(=O)N[C@@H](CO)C(=O)N[C@@H](CO)C(=O)NCCOCCOCCNC(=O)CCCCCCCCCCCCCCCCC(=O)O)NC(=O)[C@H](Cc2c[nH]c3ccccc23)NC(=O)[C@H](CCCNC(=N)N)NC(=O)[C@@H](Cc2ccccc2)NC(=O)[C@H](Cc2c[nH]cn2)NC1=O [Example 53, Ac-c[Lys-His-D-Phe-Arg-Trp-Asp]-Pro-Ser-Ser-Ser-Lys(biscarboxymethyl)-Ser-Ser-NH(2-{2-[2-(17-carboxyheptadecanoylamino)ethoxy]ethoxy}ethyl)] (Ac-KH[dF]RWDPSSS[Lys(CH2CO2H)2]SS-X1; lactam 1-6)	–	–	–	–	> 10	–	–	–	solubility (physchem; pH 6.6, Solubility Conc., pH 6.6, vehicle 10 mM phosphate): 82 µM (≈ 173 µg/mL); solubility (physchem; pH 6.9, Solubility Conc., pH 6.9, vehicle 10 mM phosphate): 159 µM (≈ 336 µg/mL); solubility (physchem; pH 7.2, Solubility Conc., pH 7.2, vehicle 10 mM phosphate): 337 µM (≈ 713 µg/mL); solubility (physchem; pH 7.3, Solubility Conc., pH 7.3, vehicle 10 mM phosphate): 396 µM (≈ 838 µg/mL); solubility (physchem; pH 7.4, Solubility Conc., pH 7.4, vehicle 10 mM phosphate): 410 µM (≈ 867 µg/mL); solubility (physchem; pH 7.5, Solubility Conc., pH 7.5, vehicle 10 mM phosphate): 385 µM (≈ 814 µg/mL); solubility (physchem; pH 7.7, Solubility Conc., pH 7.7, vehicle 10 mM phosphate): 393 µM (≈ 831 µg/mL); solubility (physchem; pH 7.9, Solubility Conc., pH 7.9, vehicle 10 mM phosphate): 425 µM (≈ 899 µg/mL); solubility (physchem; pH 8.2, Solubility Conc., pH 8.2, vehicle 10 mM phosphate): 403 µM (≈ 853 µg/mL)
